Measured values published in patent publication EP4650362A1, “NEUROPROTECTIVE PSD-95 POLYPEPTIDE INHIBITOR AND USE THEREOF” (Beijing Tuo Jie Biopharmaceutical Co. Ltd., priority 2023, dated 2024).
No end group written: not given here.

Columns and labels:
[1] = system: human whole blood; assay: hemolysis risk test in human whole blood; format: cell-based; settings: for Hemolysis rate (%): Human, 37 °C 1 h
Experimental: This test example assessed whether a polypeptide compound causes hemolytic reactions in rat, rabbit, and human whole blood.
Preparation of red blood cell suspension: 100 µL of fresh whole blood was collected, and 900 µL of 1× PBS solution was then added. The mixture was shaken on a plate shaker at 30 rpm for 5 min and then centrifuged at 1000 g for 5 min, and the supernatant was discarded. The above washing step was repeated until the supernatant no longer appeared red. The suspension was set aside for later use.
Preparation of test polypeptide solutions: An appropriate amount of 1× PBS solution was added to a powdered polypeptide, and the polypeptide was dissolved to form a standard stock solution. […] Meanwhile, blank 1× PBS was used as a negative control, and a 1× PBS solution containing 0.1% Triton X-100 was used as a positive control.
Incubation: A test solution (500 µL) was added to the red blood cell suspension, and then the mixture was well shaken on a plate shaker at 30 rpm for 5 min, incubated at 37 °C for 1 h, and centrifuged at 1000 g for 5 min.
100 µL of the supernatant was transferred to a single well of a microplate. The absorbance at 540 nm was measured using a SpectraMax M5 microplate reader, and data analysis was performed using GraphPad Prism 9. The hemolysis rate (%) was calculated using the formula: (test sample absorbance - negative control absorbance) / (positive control absorbance - negative control absorbance) × 100%. A rate of less than 5% indicates the absence of hemolysis, while a rate of greater than 5% indicates the presence of hemolysis. Table 3. Testing of the hemolysis risk of the polypeptide compound

[2] = pharmacokinetic study in beagle dogs, single intravenous infusion; format: in vivo; settings: for AUClast/dose / T1/2 / AUC(0-inf) / Cmax / MRT / Tmax: beagle dogs, intravenous infusion over 10 min, 1.2 nmol/g; for Tmax: read-out: Tmax
Experimental: With standard beagle dogs as test animals, the pharmacokinetic behavior of a polypeptide compound administered via single intravenous infusion in beagle dogs (plasma) was studied.
For polypeptide compound 22, two dose groups were set: 1.2 nmol/g and 0.4 nmol/g. For NA-1, one dose group was set: 1.2 nmol/g. Each group consisted of four animals, with an equal number of males and females. The polypeptide compound was dissolved in 1× PBS, and the polypeptide compound solution was then administered via intravenous infusion over 10 min. The blood collection time points were as follows: before infusion (0 h), 5 min after the start of bolus injection, and 0 min, 2 min, 5 min, 10 min, 15 min, 30 min, 1 h, 2 h, 4 h, 8 h, and 24 h after the end of bolus injection. At each time point, 0.5 mL of blood was collected and transferred to an EDTA-K2 anticoagulation centrifuge tube. Meanwhile, 50 µL of a protease inhibitor was added. After thorough mixing, the mixture was centrifuged at 2000 g for 10 min (4 °C), and the plasma was separated within 1 h, aliquoted into cryopreservation tubes, and stored at -60 to -90 °C. The blood collection-to-centrifugation process was performed under ice bath conditions.
The plasma concentrations of the test compounds were determined using the method in Test Example 3.4.3. Plasma concentration-time curves were plotted, and the pharmacokinetic parameters were calculated using PKSolver software.

[3] = pharmacokinetic study in rats, single intravenous bolus injection; format: in vivo, SD rats; settings: rats; for Cmax: iv, read-out: Cmax
Experimental: With male SD rats as test animals, the pharmacokinetic behavior of polypeptide compounds administered via single intravenous bolus injection in rats (plasma) was studied.
Male SD rats weighing 170 to 200 grams and aged 4-6 weeks were purchased from Beijing Vital River Laboratory Animal Technology Co., Ltd. The polypeptide compounds were dissolved in 1× PBS, and the polypeptide compound solutions were then administered via intravenous bolus injection over 10 min at a dose of 3 nmol/g, with three animals per group. At each of the time points of 2 min, 8 min, 15 min, 30 min, 45 min, 60 min, and 120 min after the end of bolus injection, 0.2 mL of blood was collected and transferred to an EDTA-K2 anticoagulation centrifuge tube. The whole blood sample was centrifuged at 4 °C at 4000 g for 5 min, and a plasma sample was obtained by separation and cryopreserved at -80 °C.
The pharmacokinetic parameters of polypeptide compound 22, administered via intravenous bolus injection, in rats were determined using a similar method, with the difference being that an enzyme inhibitor was added immediately after blood collection.
The plasma concentrations of the test compounds were determined using the method in Test Example 3.4.3. Plasma concentration-time curves were plotted, and the pharmacokinetic parameters were calculated using PKSolver software. The experimental results are shown in Table 5-1, Table 5-2, and FIG. 3.

[4] = plasma stability test, rat plasma; format: in vitro ADME; settings: Rat plasma, 25 µM
Experimental: Solution preparation: An appropriate amount of a test polypeptide compound was weighed out and dissolved in an appropriate amount of 1× PBS to form a 1 mM test solution. NA-1 and NoNO42 were used as positive drugs, propantheline bromide was used as a human plasma test control, and lovastatin was used as a rat plasma test control. Plasma stability test: 12.5 µL of the 1 mM test solution was added to a 495 µL pre-incubated plasma sample. […] For each incubation time, two parallel samples were set. Subsequently, 200 µL of stop solution was added to stop the incubation, and the mixtures were vortexed for 5 min. Then the mixtures were centrifuged at 10,000 rpm at 4 °C for 10 min to remove the protein in the sample, and 70 µL of the supernatant was transferred to a new 96-well plate (70 µL of water was added to each well beforehand) and well mixed. […] Sample pretreatment: […] LC-MS analysis: […] (2) Mass-spectrometric conditions: The mass spectrometry analysis used an electrospray ionization (ESI) source, a positive ion analysis mode, and a multi-reaction monitoring (MRM) scan mode. […] The plasma stability of the polypeptide compound

[5] = male, SD, rat, in vivo, 3 nmol/g, intravenous bolus injection, enzyme inhibitor added immediately after blood collection, n = 3
[6] = intravenous bolus injection over 10 min, 3 nmol/g, n = 3
[7] = intravenous bolus injection, enzyme inhibitor added immediately after blood collection, n = 3

YGRKKRRQRRRKLSSIESDV [NA-1, YGRKKRRQR RRKLSSIESDV, reference compound]
Hemolysis rate (%) ([1]; 1.0 µM): -0.52%
Hemolysis rate (%) ([1]; 2.5 µM): -0.59%
Hemolysis rate (%) ([1]; 5.0 µM): -0.49%
Hemolysis rate (%) ([1]; 10 µM): -0.54%
Hemolysis rate (%) ([1]; 25 µM): -0.53%
Hemolysis rate (%) ([1]; 50 µM): 0.06%
hemolysis rates ([1]; human whole blood, concentration range of 1 to 50 µM): less than 5%
AUClast/dose ([2]; Female): 284
T1/2 ([2]; Female): 2.4 min
AUClast/dose ([2]; Male): 363
T1/2 ([2]; Male): 3 min
half-life ([2]; both sexes, beagle, dog, in vivo, iv, dogs, same dose (1.2 nmol/g), read-out: average T1/2 (converted)): 2.7 min
AUC(0-inf) ([2]; dog, in vivo, Female): 855 ng·h/mL
Cmax ([2]; dog, in vivo, Female): 5030 ng/mL
MRT ([2]; dog, in vivo, Female): 9 min
Tmax ([2]; dog, in vivo, Female): 7.8 min
AUC(0-inf) ([2]; dog, in vivo, Male): 1100 ng·h/mL
Cmax ([2]; dog, in vivo, Male): 6780 ng/mL
MRT ([2]; dog, in vivo, Male): 9.6 min
Tmax ([2]; dog, in vivo, Male): 10.2 min
Tmax [3, 5]: 12 min
Cmax ([3]; male, SD, rat, in vivo, 3 nmol/g, intravenous bolus injection over 10 min, 3 nmol/g, n = 3): 3800 ng/mL
Cmax [3, 5]: 7250 ng/mL
half-life ([3]; male, SD, rat, in vivo, intravenous bolus injection over 10 min, 3 nmol/g, n = 3, read-out: T1/2 (converted)): 2.4 min
AUC(0-t) [3, 6]: 309 ng·h/mL
AUC(inf) [3, 6]: 315 ng·h/mL
AUClast/dose [3, 6]: 41
MRTO-inf [3, 6]: 3.6 min
half-lives ([3]; intravenous bolus injection, 3 nmol/g (Table 5-1)): less than 3 min
AUC(inf) [3, 7]: 1248 ng·h/mL
AUClast/dose [3, 7]: 184.0
MRTO-inf [3, 7]: 13.2 min
T1/2 [3, 7]: 2.4 min
Relative remaining compound content (%) ([4]; 0min (standard 100%)): 100.0%
Relative remaining compound content (%) ([4]; 10min): 103.7%
Relative remaining compound content (%) ([4]; 20min): 77.5%
Relative remaining compound content (%) ([4]; 30min): 69.5%
Relative remaining compound content (%) ([4]; 60min): 54.4%
Relative remaining compound content (%) ([4]; 120min): 42.1%
remaining at 10 min, 25 µM ([4]; rat, plasma, 10min, read-out: Relative remaining compound content (%)): 94.1%
remaining at 20 min, 25 µM ([4]; rat, plasma, 20min, read-out: Relative remaining compound content (%)): 83%
remaining at 0.5 h, 25 µM ([4]; rat, plasma, 30min, read-out: Relative remaining compound content (%)): 73.3%
remaining at 1 h, 25 µM ([4]; rat, plasma, 60min, read-out: Relative remaining compound content (%)): 57%
remaining at 2 h, 25 µM ([4]; rat, plasma, 120min, read-out: Relative remaining compound content (%)): 28.4%
